From patent US20030082249A1, “Compositions containing capsaicin and its derivatives, and their use in treating mucositis” (Ovation Pharmaceuticals, priority 2001, published 2003)

Key:
substance P = conditions: comparison with capsaicin; prevents pain sensation without compromising touch or motor coordination; cited from earlier work
[1] = Use of capsaicin to induce salivation: application to oral mucosa of a human subject, saliva collected for 15 minutes; assay type: in vivo
Protocol: A subject was used as a test subject to determine whether application of capsaicin to oral mucosa causes salivation. Approximately 0.25 inches of capsaicin (0.025% generic capsaicin cream) was applied to the oral mucosa. […] Saliva was collected for a period of about 15 minutes in a paper cup. The amount was compared to the amount of saliva collected for a period of 15 minutes before applying capsaicin to the oral mucosa. […] The increased salivation continued for approximately an hour. In preferred embodiments of the present invention, capsaicin or capsaicinoid is combined with one or more of the following: antihistamines such as Benadryl®, or other antihistamines, antibacterials, antifungals, antivirals, and/or antipruritis medications, such as those described above.

[2] = cited from earlier work

COc1cc(CNC(=O)CCCC/C=C\C(C)C)ccc1O [Civamide, cis-capsaicin]
depletion of substance P compared with capsaicin (substance P): more effective than capsaicin in depleting substance P

COc1cc(CNC(=O)CCCC/C=C/C(C)C)ccc1O [capsaicin]
duration of increased salivation ([1]; one subject, 0.025% capsaicin cream on oral mucosa): approximately an hour
increase in salivation relative to baseline level of salivation ([1]; one subject, about 0.25 inches of 0.025% capsaicin cream on oral mucosa, saliva collected about 15 minutes vs 15 minutes before application, estimated): about two to three times the baseline level
sensation reported by the subject after application ([1]; within a few minutes of application, increased in intensity for about twenty minutes): warm feeling in the mouth

CC[C@@H]1C(=O)OC[C@@H]1Cc1cncn1C [pilocarpine]
stimulation of salivary glands ([2]; patients experiencing xerostomia due to radiotherapy): effective in stimulating salivary glands
side effects of treatment ([2]; pilocarpine treatment): often associated with side effects involving heart, blood pressure, digestion and profuse sweating
